Consider 1 molecule from publication PMC10674565 (Pharmaceuticals, 2023).

Data set [1] has as its system ABCB1. The data set is described as follows: Effect on expression of ABCB1 in Caco-2 cells (Western blot). The format is cell-based, human. As to conditions: 1, 10, and 100 µM, 24 h incubation. How it is done: To test the effect of EMHPS on the expression of ABCB1 and SLCO1B1, Caco-2 or HepG2 cells, respectively, were cultured on a 6-well plate. EMHPS was used at concentrations of 1, 10, and 100 µM, and the duration of exposure was 24 h. After the incubation, the cells were removed from the surface of the wells with a trypsin–EDTA solution (0.25% trypsin and 0.2% EDTA, Sigma-Aldrich, St. Louis, MO, USA).
The expression levels of ABCB1 and SLCO1B1 were analyzed via Western blot.
Cells were lysed with NP40 Cell Lysis Buffer Thermo (Thermo Fisher Scientific) with protease inhibitors (Sigma Aldrich, St. Louis, MO, USA) for 30 min at +4 °C with constant stirring at a rate of 10^7 cells per 100 µL of buffer. Protein concentrations were quantified with the Pierce Coomassie Plus Assay Kit (Thermo Fisher, Rockford, IL, USA). […]
The protein content was measured relative to the level of housekeeping protein GAPDH (primary antibodies: GAPDH Loading Control Monoclonal Antibody (GA1R) and […] (Invitrogen); secondary antibodies: secondary rabbit antibodies to primary GAPDH antibodies—Rabbit-anti-Mouse IgG (H + L) Secondary Antibody and HRP (Invitrogen). Chemiluminescence was recorded using ChemiDocXRS+ (Bio-Rad). The intensity of the obtained bands was analyzed densitometrically using ImageLab 6.0.0 software (Bio-Rad).
On the technique in general: A western blot detects proteins with antibodies after separation by electrophoresis.

In another data set the test system is CYP3A4 isoenzyme. More on the design: method as in PMID 21254598. As to conditions: cited from earlier work.
A further data set addresses T1, SLCO1B1 (Homo sapiens, UniProt Q9Y6L6).
T1 sequence (Q9Y6L6 1-691): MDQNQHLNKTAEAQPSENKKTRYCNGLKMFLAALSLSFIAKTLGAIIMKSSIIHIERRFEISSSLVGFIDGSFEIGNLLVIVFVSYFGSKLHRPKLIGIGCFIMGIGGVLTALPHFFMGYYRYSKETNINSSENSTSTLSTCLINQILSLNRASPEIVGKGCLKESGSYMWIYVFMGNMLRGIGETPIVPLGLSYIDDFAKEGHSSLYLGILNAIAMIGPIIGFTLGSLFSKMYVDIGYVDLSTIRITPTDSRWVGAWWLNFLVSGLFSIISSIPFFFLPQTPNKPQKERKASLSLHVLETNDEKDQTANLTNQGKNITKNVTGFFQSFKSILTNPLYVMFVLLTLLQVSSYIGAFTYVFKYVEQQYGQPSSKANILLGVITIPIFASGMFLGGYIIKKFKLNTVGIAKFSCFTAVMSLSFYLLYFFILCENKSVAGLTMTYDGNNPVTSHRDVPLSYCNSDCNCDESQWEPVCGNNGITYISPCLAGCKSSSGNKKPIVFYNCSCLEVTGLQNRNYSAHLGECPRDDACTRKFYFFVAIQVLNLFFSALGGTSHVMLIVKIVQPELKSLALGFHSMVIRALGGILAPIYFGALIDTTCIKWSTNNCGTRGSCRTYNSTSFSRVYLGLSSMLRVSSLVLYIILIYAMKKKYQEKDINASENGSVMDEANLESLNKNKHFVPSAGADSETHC
In words: Inhibition of SLCO1B1-mediated uptake of atorvastatin in HEK293-SLCO1B1 cells. More on the design: The SLCO1B1 gene was obtained via synthesis and was cloned into the pEGFP-N1 vector; expressed in transfected cells; host or cells: HEK293. It counts as in vitro ADME. How it is done:
As a positive inhibition control, rifampicin at similar concentrations was used. Three independent experiments were performed. […] Proteins were precipitated by adding acetonitrile in a 1:1 ratio to the sample. […] The mobile phase gradient program was as follows: 0-0.6 min-35% A and 65% B, 0.6-5.0 min-5% A and 95% B, 5.0-8.0 min-35% A and 65% B. The flow rate and the column temperature were maintained at 300 μL/min and 35 °C. Aliquots (2 μL) of the extracted samples were injected.

Another data set has as its system chronic brain ischemia. More on the design: method as in PMID 34932280. The following applies: 318 patients with chronic brain ischemia; cited from earlier work.
Details of data set [2]: method as in earlier work. As to conditions: blood plasma; cited from earlier work.
For data set [3], the target named is ABCB1 (Homo sapiens, UniProt P08183). In words: Effect on ABCB1-mediated transport of fexofenadine through the Caco-2 cells monolayer. How it is done: Transport experiments were carried out in Transwell® systems (12 mm Transwell® with 0.4 µm Pore Polycarbonate Membrane Insert, Sterile, «Corning»). The Transwell® system consists of two chambers, apical and basolateral. […] The medium was changed every 2–3 days. The apical and basolateral chambers represent the luminal and blood/mesenteric lymph sides of the gastrointestinal tract, respectively.
The transepithelial electrical resistance (TEER) across the cell monolayers was monitored using a Millicell-ERS (electrical resistance system) to assess cell monolayer integrity. For transport studies, only monolayers with a TEER > 500 Ω cm^2 were used.
To study the roles of different parts of the EMHPS molecule for its action on ABCB1, experiments with succinic acid were also carried out.
Prior to the transport experiments, the culture media was aspirated, and the monolayers were washed twice with transport medium and preincubated with EMHPS, succinic acid, or verapamil for 30 min.
The data are presented as the mean ± SD from three monolayers.
The resulting sample of the transport medium (50 μL) was diluted in 150 μL of the mobile phase, and 100 μL of the resulting solution was injected into the chromatograph. A Phenomenex Synergi 4u Polar-RP 80A (250 × 4.6) chromatographic column was used for analysis. The separation temperature was 35 °C; the flow rate was 1 mL/min. Composition of the mobile phase: acetonitrile (128 mL), deionized water (267.4 mL), acetic acid (6.33 mL), triethylamine to pH = 6.7. […] Detection was carried out at a wavelength of 220 nm.
Half maximal inhibitory concentration (IC50) values were determined through nonlinear regression based on the three-parameter logistic function.

Setting [4] is: human, HEK293-SLCO1B1 cells, pH 7.4, probe atorvastatin 1 µM.
Setting [5] is: human, Caco-2 cell monolayer on Transwell inserts, probe fexofenadine 150 µmol/L.

ABCB1 (Homo sapiens, UniProt P08183), sequence (P08183 whole entry): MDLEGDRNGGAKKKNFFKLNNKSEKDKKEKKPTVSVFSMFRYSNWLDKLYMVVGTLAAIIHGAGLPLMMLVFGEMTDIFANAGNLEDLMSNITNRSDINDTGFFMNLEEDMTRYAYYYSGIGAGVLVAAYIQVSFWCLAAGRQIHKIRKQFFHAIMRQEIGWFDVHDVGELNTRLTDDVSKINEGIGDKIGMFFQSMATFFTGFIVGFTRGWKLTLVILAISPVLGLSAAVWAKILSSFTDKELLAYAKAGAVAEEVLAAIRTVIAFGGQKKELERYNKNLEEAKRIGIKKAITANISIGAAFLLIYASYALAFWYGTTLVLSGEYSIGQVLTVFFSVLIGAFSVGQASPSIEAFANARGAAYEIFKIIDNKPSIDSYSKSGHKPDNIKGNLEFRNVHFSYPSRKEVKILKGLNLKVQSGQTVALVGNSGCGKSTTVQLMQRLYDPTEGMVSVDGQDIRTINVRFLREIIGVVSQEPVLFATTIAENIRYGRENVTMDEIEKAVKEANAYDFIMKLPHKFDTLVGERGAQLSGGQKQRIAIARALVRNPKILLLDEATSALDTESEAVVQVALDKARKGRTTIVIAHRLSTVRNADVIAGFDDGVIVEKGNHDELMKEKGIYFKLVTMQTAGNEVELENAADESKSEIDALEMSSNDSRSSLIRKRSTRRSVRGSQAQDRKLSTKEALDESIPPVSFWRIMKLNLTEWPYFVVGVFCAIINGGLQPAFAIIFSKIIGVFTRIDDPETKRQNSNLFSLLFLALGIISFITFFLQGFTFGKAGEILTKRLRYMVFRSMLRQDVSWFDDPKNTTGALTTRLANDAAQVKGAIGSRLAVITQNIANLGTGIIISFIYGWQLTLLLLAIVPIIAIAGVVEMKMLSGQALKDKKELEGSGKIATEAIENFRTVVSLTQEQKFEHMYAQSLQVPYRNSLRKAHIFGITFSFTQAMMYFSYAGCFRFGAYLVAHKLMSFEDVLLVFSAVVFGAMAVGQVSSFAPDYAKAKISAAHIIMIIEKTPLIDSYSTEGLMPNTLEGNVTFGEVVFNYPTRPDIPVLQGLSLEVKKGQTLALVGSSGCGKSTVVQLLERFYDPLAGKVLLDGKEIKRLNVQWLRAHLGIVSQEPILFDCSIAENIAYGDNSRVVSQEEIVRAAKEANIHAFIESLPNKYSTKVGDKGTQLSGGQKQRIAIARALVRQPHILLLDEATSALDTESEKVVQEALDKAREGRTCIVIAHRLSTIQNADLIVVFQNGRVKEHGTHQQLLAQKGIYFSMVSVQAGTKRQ

With `CCc1nc(C)ccc1O.O=C(O)CCC(=O)O` [EMHPS, 2-Ethyl-6-methyl-3-hydroxypyridine succinate], the “effect on expression of ABCB1” value in the data set on ABCB1 [1] was “did not significantly affect”. In the data set with CYP3A4 isoenzyme, the “effect on CYP3A4 isoenzyme” value is on record as “inducer”. Further, half-maximal inhibition against SLCO1B1 (IC50) required 12.1 ± 7.64 µM. In addition, at SLCO1B1 (setting [4]), the inhibition – broadly, the drop in the measured response relative to a control, in per cent – at 100 µM is 64.7% and the inhibition at 500 µM was 90.6%. In addition, the “benefit over the placebo in basic neurological tests” value in the data set with chronic brain ischemia is “statistically significant benefit”. For the same molecule, the Cmax (in general, the maximum level reached in the sampled fluid or tissue) in data set [2] was 390 nM. In addition, the IC50 – broadly, the concentration that gives 50% inhibition – at ABCB1 [3] was found to be 92 ± 24.3 µM. Besides, the “decrease of basal-to-apical fexofenadine transport” value on ABCB1 [3] (200 µM, vs control, Caco-2 monolayer) was found to be 52.5%. On ABCB1 [3] (setting [5]), the inhibition at 50 µM amounted to 50.2%, the inhibition at 100 µM stood at 72.9% and the inhibition at 200 µM was 90.6%.
